Laboratory results taken from patent US20250092065A1, “2-(INDAZOL-5-YL)-6-(PIPERIDIN-4-YL)-1,7-NAPHTHYRIDINE DERIVATIVES AND RELATED COMPOUNDS AS MODULATORS FOR SPLICING NUCLEIC ACIDS AND FOR THE TREATMENT OF PROLIFERATIVE DISEASES” (REMIX THERAPEUTICS INC., priority 2022, published 2025).
pIC50: −log10 of the molar value. Read-outs that look alike come from different tables or passages of the source.

Tests used:
Format in all cases: cell-based, human
MYB = assay: HiBiT protein abundance assay, MYB (K562 HiBiT knock-in); settings: HiBiT knock-in K562 cells, 24 hours, top dose 10 μM
In short: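 Endogenously HiBiT-tagged K562 lines were treated for 24 h at 37 °C with 10-point 3-fold dilutions (top 10 μM final, DMSO ≤0.25%). Lytic LgBiT complementation luminescence was normalized between unmodified K562 (PC) and DMSO-treated tagged cells (NC); IC50 was interpolated at 50% from a four-parameter logistic fit.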

SMN2 mRNA = assay: RT-qPCR splicing assay, SMN2 mRNA; settings: canonical junction qPCR panel, Table 4, read-out: SMN2 IC50 (decrease in CJ mRNA levels)
In short: (§1)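 Both isoforms, CJ and AJ, read by qPCR from crude lysates of treated A673 or K562 cells; 24 h, 37 °C, maximum 10 uM. Normalization: housekeeper ΔCt, then DMSO ΔΔCt.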

Target C = assay: HiBiT protein abundance assay, Target C (K562 HiBiT knock-in); settings: HiBiT knock-in K562 cells, 24 hours, top dose 10 μM
In short: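 K562 HiBiT knock-in cells (10000/well) were treated 24 h at 37° C with a 10-point 3-fold dilution series (top 10 μM final, ≤0.25% DMSO). HiBiT luminescence was read after lytic LgBiT detection. Percent response used unmodified K562 and DMSO-treated knock-in controls, and IC50 came from a four-parameter fit at 50% of untreated.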

HTT mRNA = assay: RT-qPCR splicing assay, HTT mRNA canonical (CJ) and alternative (AJ) junction; settings: for AC50: HTT alternative junction mRNA, read-out: HTT AJ (increase in AJ mRNA, AC50)
In short: as §1

MYB mRNA = assay: RT-qPCR splicing assay, MYB mRNA canonical (CJ) and alternative (AJ) junction; settings: for AC50: MYB alternative junction mRNA, read-out: MYB AJ (increase in AJ mRNA, AC50)
In short: as §1

[1] = Homo sapiens, HTT canonical junction mRNA, RT-qPCR, read-out: HTT CJ (decrease in CJ mRNA levels, IC50)
[2] = Homo sapiens, canonical junction qPCR panel, Table 4, read-out: HTT IC50 (decrease in CJ mRNA levels)
[3] = Homo sapiens, MYB canonical junction mRNA, RT-qPCR, read-out: MYB CJ (decrease in CJ mRNA levels, IC50)
[4] = Homo sapiens, canonical junction qPCR panel, Table 4, read-out: MYB IC50 (decrease in CJ mRNA levels)

| Compound | pIC50 (MYB) | pIC50 (SMN2 mRNA; Homo sapiens) | pIC50 (Target C) | AC50 (HTT mRNA; Homo sapiens, RT-qPCR) [nM] | pIC50 (HTT mRNA; [1]) | pIC50 (HTT mRNA; [2]) | AC50 (MYB mRNA; Homo sapiens, RT-qPCR) [nM] | pIC50 (MYB mRNA; [3]) | pIC50 (MYB mRNA; [4]) | pIC50 (SMN2 mRNA) | AC50 (HTT mRNA; RT-qPCR) [nM] | pIC50 (HTT mRNA; HTT canonical junction mRNA, RT-qPCR, read-out: HTT CJ (decrease in CJ mRNA levels, IC50)) | pIC50 (HTT mRNA; canonical junction qPCR panel, Table 4, read-out: HTT IC50 (decrease in CJ mRNA levels)) | AC50 (MYB mRNA; RT-qPCR) [nM] | pIC50 (MYB mRNA; MYB canonical junction mRNA, RT-qPCR, read-out: MYB CJ (decrease in CJ mRNA levels, IC50)) | pIC50 (MYB mRNA; canonical junction qPCR panel, Table 4, read-out: MYB IC50 (decrease in CJ mRNA levels)) |
| --- | --- | --- | --- | --- | --- | --- | --- | --- | --- | --- | --- | --- | --- | --- | --- | --- |
| Cn1cc2cc(-c3ccc4nc(N5CCC(NC6CC6)C5)ccc4n3)c(O)c(F)c2n1 (racemic) [Compound 287, 5-{6-[3-(cyclopropylamino)pyrrolidin-1-yl]-1,5-naphthyridin-2-yl}-7-fluoro-2-methylindazol-6-ol; trifluoroacetic acid] | > 7.00 | > 7.00 | > 7.00 | < 100 | > 7.00 | > 7.00 | < 100 | > 7.00 | > 7.00 |  |  |  |  |  |  |  |
| CC(C)N[C@@H]1CCN(c2ccc3nc(-c4cc5cn(C)nc5c(F)c4O)ccc3n2)C1 (single isomer, unassigned) [Compound 285] | > 7.00 | > 7.00 | > 7.00 | < 100 | > 7.00 | > 7.00 | < 100 | > 7.00 | > 7.00 |  |  |  |  |  |  |  |
| CC(C)N[C@H]1CCN(c2ccc3nc(-c4cc5cn(C)nc5c(F)c4O)ccc3n2)C1 (single isomer, unassigned) [Compound 286] | > 7.00 | > 7.00 | > 7.00 | < 100 | > 7.00 | > 7.00 | < 100 | > 7.00 | > 7.00 |  |  |  |  |  |  |  |
| Cc1c(O)c(-c2ccc3nc(N4CC[C@@H](NC5CCC5)C4)ccc3n2)cc2cn(C)nc12 (single isomer, unassigned) [Compound 289] | > 7.00 | > 7.00 | > 7.00 | < 100 | > 7.00 | > 7.00 | < 100 | > 7.00 | > 7.00 |  |  |  |  |  |  |  |
| Cc1c(O)c(-c2ccc3nc(N4CC[C@H](NC5CCC5)C4)ccc3n2)cc2cn(C)nc12 (single isomer, unassigned) [Compound 290] | > 7.00 | > 7.00 | > 7.00 | < 100 | > 7.00 | > 7.00 | < 100 | > 7.00 | > 7.00 |  |  |  |  |  |  |  |
| Cc1nc2cc(O)c(-c3ccc4nc(N5CCC(NCC6CC6)C5)ccc4n3)cc2o1 (single isomer, unassigned) [Compound 291, 6-(6-{3-[(cyclopropylmethyl)amino]pyrrolidin-1-yl}-1,5-naphthyridin-2-yl)-2-methyl-1,3-benzoxazol-5-ol] | 6.00 to 7.00 | > 7.00 | 6.00 to 7.00 | 100 to 1000 | 6.00 to 7.00 | 6.00 to 7.00 | 100 to 1000 | 6.00 to 7.00 | 6.00 to 7.00 |  |  |  |  |  |  |  |
| Cc1nc2cc(O)c(-c3ccc4nc(N5CCC(NCC6CC6)C5)ccc4n3)cc2o1 (single isomer, unassigned) [Compound 292, 6-(6-{3-[(cyclopropylmethyl)amino]pyrrolidin-1-yl}-1,5-naphthyridin-2-yl)-2-methyl-1,3-benzoxazol-5-ol] | 6.00 to 7.00 |  | > 7.00 |  |  |  |  |  |  | > 7.00 | 100 to 1000 | 6.00 to 7.00 | 6.00 to 7.00 | 100 to 1000 | > 7.00 | > 7.00 |
| Cc1nc2c(C)c(O)c(-c3ccc4nc(N5CC[C@@H](NCC6CC6)C5)ccc4n3)cc2o1 (single isomer, unassigned) [Compound 295] | > 7.00 | > 7.00 | > 7.00 | < 100 | > 7.00 | > 7.00 | < 100 | > 7.00 | > 7.00 |  |  |  |  |  |  |  |
| Cc1nc2c(C)c(O)c(-c3ccc4nc(N5CC[C@H](NCC6CC6)C5)ccc4n3)cc2o1 (single isomer, unassigned) [Compound 296] | > 7.00 | > 7.00 | > 7.00 | < 100 | > 7.00 | > 7.00 | < 100 | 6.00 to 7.00 | 6.00 to 7.00 |  |  |  |  |  |  |  |
